According to patent EP4467141A1, “PYRAZOLO-QUINOLINES AS SELECTIVE INHIBITORS OF GENOTOXIC STRESS-INDUCED IKK/NF- KB PATHWAYS FOR CANCER THERAPY” (Max-Delbrück-Centrum für Molekulare Medizin in der …, priority 2023, dated 2024):

How the values were obtained:
Test in all cases: Kinase panel study
Type in all cases: biochemical
Conditions in all cases: read-out: Percentage of inhibition; for inhibition at 1 µM: 1000nM; for inhibition at 10 µM: 10000nM
[1] = biological target: T1, CAMK1D (CaMKI delta) (Homo sapiens, UniProt Q8IU85)
T1 construct: purchased Thermo Fisher Scientific
Summary of the method: (§1)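 Inhibition was measured in an outsourced in vitro kinase panel using the ZLyte or Adapta format under the provider's standard procedures. Values are percent inhibition at 10 µM or 1 µM compound, and IC50s were also obtained.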

[2] = biological target: T2, CDK1/cyclin B (Homo sapiens, UniProt P06493)
T2 construct: purchased Thermo Fisher Scientific
T2 sequence (P06493 whole entry): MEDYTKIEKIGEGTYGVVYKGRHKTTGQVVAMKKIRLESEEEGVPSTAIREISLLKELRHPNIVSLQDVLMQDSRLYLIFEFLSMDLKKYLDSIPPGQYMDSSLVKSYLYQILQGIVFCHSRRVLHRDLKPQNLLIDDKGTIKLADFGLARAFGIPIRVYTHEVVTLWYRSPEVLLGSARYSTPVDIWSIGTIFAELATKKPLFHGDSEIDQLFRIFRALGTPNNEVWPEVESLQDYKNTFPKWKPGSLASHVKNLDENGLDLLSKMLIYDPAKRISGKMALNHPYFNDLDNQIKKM
T2 sequence (P14635 whole entry partner): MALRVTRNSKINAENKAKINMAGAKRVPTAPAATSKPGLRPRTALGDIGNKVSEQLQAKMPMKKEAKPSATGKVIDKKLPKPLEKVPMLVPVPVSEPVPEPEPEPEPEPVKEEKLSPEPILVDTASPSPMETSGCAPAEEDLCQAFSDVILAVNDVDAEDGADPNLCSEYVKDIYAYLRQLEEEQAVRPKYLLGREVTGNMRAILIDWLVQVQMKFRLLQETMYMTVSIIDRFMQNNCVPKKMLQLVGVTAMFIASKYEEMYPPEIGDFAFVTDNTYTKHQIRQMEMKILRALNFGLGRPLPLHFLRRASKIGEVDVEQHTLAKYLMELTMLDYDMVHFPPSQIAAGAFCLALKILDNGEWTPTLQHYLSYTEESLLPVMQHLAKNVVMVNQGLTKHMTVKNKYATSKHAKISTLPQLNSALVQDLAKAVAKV
Summary of the method: as §1

[3] = biological target: T3, CHEK1 (CHK1) (Homo sapiens, UniProt O14757)
T3 construct: purchased Thermo Fisher Scientific
T3 sequence (O14757 1-476): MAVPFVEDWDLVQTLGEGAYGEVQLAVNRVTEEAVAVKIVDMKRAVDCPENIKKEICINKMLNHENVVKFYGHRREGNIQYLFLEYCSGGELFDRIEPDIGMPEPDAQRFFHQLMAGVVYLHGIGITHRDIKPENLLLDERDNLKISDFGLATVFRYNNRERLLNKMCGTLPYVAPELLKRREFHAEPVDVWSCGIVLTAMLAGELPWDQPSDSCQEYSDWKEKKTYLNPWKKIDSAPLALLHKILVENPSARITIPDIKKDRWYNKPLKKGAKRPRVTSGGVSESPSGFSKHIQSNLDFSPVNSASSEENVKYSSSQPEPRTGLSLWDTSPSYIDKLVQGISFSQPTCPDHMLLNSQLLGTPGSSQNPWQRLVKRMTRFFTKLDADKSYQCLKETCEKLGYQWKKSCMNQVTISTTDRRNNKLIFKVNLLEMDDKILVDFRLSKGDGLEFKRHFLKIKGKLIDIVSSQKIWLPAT
Summary of the method: as §1

[4] = biological target: T4, EGFR (ErbB1) T790M (Homo sapiens, UniProt P00533, T790M)
T4 construct: purchased Thermo Fisher Scientific
T4 sequence (P00533 25-1210 T790M): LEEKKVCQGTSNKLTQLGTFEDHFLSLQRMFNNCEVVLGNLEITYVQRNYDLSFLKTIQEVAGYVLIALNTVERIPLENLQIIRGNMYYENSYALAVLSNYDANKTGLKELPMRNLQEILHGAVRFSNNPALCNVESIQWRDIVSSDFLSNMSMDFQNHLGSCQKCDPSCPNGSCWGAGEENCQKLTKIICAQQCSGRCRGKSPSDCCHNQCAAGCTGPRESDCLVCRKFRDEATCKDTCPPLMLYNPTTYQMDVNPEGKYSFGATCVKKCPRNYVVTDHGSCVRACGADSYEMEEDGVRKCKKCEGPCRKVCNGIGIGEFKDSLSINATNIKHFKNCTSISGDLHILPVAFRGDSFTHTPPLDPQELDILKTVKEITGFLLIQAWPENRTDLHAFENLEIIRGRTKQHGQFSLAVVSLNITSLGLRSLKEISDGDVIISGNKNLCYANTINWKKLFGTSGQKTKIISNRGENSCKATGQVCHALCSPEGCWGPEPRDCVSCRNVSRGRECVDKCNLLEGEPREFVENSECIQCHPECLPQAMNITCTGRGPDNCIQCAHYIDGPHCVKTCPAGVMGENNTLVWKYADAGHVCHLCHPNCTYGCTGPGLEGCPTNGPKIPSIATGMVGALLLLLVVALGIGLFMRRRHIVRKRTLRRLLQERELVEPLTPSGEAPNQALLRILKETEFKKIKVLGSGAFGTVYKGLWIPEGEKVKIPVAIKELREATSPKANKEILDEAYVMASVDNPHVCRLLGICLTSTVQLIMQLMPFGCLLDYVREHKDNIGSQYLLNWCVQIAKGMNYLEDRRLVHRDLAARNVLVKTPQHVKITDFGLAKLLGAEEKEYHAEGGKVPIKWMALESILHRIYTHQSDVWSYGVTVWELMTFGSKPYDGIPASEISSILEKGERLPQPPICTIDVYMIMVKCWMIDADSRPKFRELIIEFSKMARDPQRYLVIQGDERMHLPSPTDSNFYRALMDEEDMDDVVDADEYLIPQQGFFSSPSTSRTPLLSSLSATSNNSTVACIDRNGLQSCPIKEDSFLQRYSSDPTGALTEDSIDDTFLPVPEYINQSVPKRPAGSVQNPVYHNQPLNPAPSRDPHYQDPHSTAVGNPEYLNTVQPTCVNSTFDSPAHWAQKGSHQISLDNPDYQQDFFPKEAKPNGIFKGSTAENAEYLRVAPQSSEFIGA
Summary of the method: as §1

[5] = biological target: T5, EPHB4 (Homo sapiens, UniProt P54760)
T5 construct: purchased Thermo Fisher Scientific
T5 sequence (P54760 16-987): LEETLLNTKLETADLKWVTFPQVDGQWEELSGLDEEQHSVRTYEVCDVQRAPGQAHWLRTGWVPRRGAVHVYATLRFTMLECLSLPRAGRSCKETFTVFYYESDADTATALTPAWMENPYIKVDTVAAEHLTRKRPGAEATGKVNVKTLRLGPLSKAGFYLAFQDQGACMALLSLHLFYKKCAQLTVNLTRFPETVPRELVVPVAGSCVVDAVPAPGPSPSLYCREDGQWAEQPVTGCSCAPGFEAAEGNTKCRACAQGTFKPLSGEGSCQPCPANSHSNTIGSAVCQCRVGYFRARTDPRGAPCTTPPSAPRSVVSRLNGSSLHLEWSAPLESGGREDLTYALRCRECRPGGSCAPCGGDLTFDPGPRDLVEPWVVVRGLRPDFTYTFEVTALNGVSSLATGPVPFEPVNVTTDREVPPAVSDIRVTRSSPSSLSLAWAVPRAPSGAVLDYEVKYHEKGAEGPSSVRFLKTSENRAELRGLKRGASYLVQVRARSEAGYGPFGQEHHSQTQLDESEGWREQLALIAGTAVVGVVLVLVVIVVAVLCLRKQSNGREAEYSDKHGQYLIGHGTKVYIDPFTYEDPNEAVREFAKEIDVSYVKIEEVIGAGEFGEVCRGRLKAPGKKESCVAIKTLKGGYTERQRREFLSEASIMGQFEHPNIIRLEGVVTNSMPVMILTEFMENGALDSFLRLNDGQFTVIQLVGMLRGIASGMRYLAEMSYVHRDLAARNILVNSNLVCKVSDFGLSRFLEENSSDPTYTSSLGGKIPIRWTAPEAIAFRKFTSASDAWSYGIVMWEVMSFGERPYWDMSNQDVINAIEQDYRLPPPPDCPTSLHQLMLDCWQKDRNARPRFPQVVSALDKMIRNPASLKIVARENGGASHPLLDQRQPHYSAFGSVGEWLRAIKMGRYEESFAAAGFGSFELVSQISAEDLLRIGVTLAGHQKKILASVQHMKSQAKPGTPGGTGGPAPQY
Summary of the method: as §1

[6] = biological target: T6, FLT4 (VEGFR3) (Homo sapiens, UniProt P35916)
T6 construct: purchased Thermo Fisher Scientific
T6 sequence (P35916 25-1363): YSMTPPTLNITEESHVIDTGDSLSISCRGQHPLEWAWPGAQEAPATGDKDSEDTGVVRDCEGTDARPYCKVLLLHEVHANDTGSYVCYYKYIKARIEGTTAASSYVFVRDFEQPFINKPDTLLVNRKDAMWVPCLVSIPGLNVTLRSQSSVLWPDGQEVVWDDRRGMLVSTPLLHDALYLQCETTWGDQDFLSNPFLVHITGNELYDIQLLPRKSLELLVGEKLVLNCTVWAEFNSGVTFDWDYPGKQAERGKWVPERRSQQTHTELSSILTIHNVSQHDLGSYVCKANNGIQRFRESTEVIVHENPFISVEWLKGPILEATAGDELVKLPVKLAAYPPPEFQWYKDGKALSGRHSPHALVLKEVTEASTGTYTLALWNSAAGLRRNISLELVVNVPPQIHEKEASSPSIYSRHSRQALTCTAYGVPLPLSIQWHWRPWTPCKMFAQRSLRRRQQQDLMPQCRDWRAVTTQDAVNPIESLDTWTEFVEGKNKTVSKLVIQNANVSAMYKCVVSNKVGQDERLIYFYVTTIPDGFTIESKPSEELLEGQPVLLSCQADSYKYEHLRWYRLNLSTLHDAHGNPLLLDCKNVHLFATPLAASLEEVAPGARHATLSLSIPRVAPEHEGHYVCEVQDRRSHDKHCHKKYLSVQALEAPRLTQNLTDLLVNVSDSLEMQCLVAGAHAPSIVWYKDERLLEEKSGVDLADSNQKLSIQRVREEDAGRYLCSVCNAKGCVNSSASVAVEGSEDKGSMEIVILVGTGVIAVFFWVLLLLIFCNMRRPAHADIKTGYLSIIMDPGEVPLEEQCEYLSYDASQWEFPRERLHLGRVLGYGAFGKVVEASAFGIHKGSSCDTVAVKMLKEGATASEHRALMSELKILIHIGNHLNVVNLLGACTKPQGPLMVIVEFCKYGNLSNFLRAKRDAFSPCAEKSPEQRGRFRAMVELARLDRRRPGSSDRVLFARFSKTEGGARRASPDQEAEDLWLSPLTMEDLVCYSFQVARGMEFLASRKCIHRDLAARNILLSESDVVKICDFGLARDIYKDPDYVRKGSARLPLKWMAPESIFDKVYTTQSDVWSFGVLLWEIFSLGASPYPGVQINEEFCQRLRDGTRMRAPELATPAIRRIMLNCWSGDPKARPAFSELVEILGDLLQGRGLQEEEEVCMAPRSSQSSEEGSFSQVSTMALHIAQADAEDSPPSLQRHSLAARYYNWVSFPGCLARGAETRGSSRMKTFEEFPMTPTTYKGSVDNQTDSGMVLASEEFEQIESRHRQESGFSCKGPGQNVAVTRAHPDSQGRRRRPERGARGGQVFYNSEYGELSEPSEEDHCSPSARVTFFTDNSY
Summary of the method: as §1

[7] = biological target: T7, MAPK3 (ERK1) (Homo sapiens, UniProt P27361)
T7 construct: purchased Thermo Fisher Scientific
T7 sequence (P27361 whole entry): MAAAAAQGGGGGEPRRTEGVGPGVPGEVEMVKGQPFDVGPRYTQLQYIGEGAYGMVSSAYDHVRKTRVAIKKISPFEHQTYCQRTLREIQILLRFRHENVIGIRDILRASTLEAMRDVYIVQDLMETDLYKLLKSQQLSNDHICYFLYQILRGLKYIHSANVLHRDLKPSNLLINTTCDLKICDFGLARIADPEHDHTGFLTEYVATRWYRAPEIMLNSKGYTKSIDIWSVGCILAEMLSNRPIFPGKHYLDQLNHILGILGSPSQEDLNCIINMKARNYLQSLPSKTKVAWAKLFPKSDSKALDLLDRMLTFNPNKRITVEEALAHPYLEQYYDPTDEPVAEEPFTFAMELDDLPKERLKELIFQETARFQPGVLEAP
Summary of the method: as §1

[8] = biological target: T8, PAK6 (Homo sapiens, UniProt Q9NQU5)
T8 construct: purchased Thermo Fisher Scientific
Summary of the method: as §1

[9] = biological target: T9, PRKCA (PKC alpha) (Homo sapiens, UniProt P17252)
T9 construct: purchased Thermo Fisher Scientific
Summary of the method: as §1

[10] = biological target: T10, RET V804E (Homo sapiens, UniProt P07949, V804E)
T10 construct: purchased Thermo Fisher Scientific
T10 sequence (P07949 29-1114 V804E): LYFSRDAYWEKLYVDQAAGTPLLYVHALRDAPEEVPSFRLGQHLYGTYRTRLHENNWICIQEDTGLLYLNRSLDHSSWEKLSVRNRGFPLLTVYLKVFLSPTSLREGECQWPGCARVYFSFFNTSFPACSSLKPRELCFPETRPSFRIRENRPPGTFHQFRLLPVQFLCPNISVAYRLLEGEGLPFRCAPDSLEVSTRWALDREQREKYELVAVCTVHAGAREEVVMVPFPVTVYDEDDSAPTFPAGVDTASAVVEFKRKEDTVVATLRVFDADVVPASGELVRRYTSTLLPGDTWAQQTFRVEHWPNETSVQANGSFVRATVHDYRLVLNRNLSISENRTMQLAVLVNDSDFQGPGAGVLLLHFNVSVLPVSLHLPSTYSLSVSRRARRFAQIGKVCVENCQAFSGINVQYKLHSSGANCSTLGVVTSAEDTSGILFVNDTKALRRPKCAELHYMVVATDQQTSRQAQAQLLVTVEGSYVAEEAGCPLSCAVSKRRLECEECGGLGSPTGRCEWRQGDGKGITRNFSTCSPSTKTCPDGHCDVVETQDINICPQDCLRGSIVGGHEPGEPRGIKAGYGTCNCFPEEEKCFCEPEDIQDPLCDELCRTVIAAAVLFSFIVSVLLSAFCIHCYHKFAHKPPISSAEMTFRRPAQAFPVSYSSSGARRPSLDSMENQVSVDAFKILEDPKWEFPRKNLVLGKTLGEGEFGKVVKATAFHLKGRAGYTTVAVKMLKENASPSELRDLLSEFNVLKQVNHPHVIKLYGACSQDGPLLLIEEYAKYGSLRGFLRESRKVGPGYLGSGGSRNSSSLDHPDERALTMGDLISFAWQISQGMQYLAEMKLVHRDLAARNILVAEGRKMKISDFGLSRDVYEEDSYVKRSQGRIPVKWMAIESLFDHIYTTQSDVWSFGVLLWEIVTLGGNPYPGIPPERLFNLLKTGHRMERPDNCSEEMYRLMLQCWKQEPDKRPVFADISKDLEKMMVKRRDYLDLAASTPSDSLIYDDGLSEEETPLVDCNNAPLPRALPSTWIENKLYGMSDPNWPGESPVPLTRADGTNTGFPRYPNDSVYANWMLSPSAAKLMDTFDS
Summary of the method: as §1

SMILES | inhibition at 1 µM [1] [%] | inhibition at 10 µM [1] [%] | inhibition at 1 µM [2] [%] | inhibition at 10 µM [2] [%] | inhibition at 1 µM [3] [%] | inhibition at 10 µM [3] [%] | inhibition at 1 µM [4] [%] | inhibition at 10 µM [4] [%] | inhibition at 1 µM [5] [%] | inhibition at 10 µM [5] [%] | inhibition at 1 µM [6] [%] | inhibition at 10 µM [6] [%] | inhibition at 1 µM [7] [%] | inhibition at 10 µM [7] [%] | inhibition at 1 µM [8] [%] | inhibition at 10 µM [8] [%] | inhibition at 1 µM [9] [%] | inhibition at 10 µM [9] [%] | inhibition at 1 µM [10] [%] | inhibition at 10 µM [10] [%]
COc1ccc2c(c1OC)c(=O)n1c3ccc(O)cc3c3ccnc2c31 [MW01, 5-Hydroxy-10,11-dimethoxy-9H-benzo[c]indolo[3,2,1-ij][1,5]naphthyridin-9-one] | 5 | 9 | 20 | 46 | 4 | 13 | 8 | 19 | 5 | 7 | 13 | 31 | 14 | 4 | 5 | -10 | 11 | 18 | 5 | 17
COc1ccc2cc3c(N)nn(C(=O)c4cccc(N(C)C)c4)c3nc2c1 [MW05, (3-Amino-7-methoxypyrazolo[3,4-b]quinolin-1-yl)-[3-(dimethylamino)phenyl]methanone] | 1 | -1 | 19 | 57 | 16 | 27 | 4 | 0 | -3 | 2 | 7 | -3 | 14 | 11 | 11 | 3 | 4 | -1 | 1 | -7
